Data reported in US10597388B2, “Pyridazinone herbicides” (FMC CORPORATION, priority 2014, dated 2020).

Columns and labels:
Assay in all cases: Test D controlled growth environment herbicide test, pre- and postemergence
Assay type in all cases: in vivo
[1] = system: speedwell (bird's-eye speedwell, Veronica persica)
Outline: (§1)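 Rating is visual, 0–100 scale (100 = complete control), made against untreated plants 14–21 d after treatment in controlled growth conditions. Postemergence sprays went onto 1- to 4-leaf plants in peat medium; preemergence sprays onto silt loam after sowing; formulation included a surfactant.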

[2] = system: chickweed (common chickweed, Stellaria media)
Outline: as §1

[3] = system: barley, winter (winter barley, Hordeum vulgare)
Outline: as §1

[4] = system: lambsquarters (Chenopodium album)
Outline: as §1

[5] = system: deadnettle (henbit deadnettle, Lamium amplexicaule)
Outline: as §1

[6] = system: wheat, winter (winter wheat, Triticum aestivum)
Outline: as §1

[7] = system: bromegrass, downy (downy bromegrass, Bromus tectorum)
Outline: as §1

[8] = system: mustard, wild (wild mustard, Sinapis arvensis)
Outline: as §1

[9] = system: Russian thistle (Salsola kali)
Outline: as §1

kochia (Kochia scoparia) = system: kochia (Kochia scoparia)
Outline: as §1

[10] = system: galium (catchweed bedstraw, Galium aparine)
Outline: as §1

[11] = system: windgrass (Apera spica-venti)
Outline: as §1

[12] = system: field poppy (Papaver rhoeas)
Outline: as §1

[13] = Postemergence, 31 g ai/ha, scale 0 to 100 (0 no effect, 100 complete control)
[14] = Postemergence, 125 g ai/ha, visual rating on scale 0 (no effect) to 100 (complete control), 14 to 21 d
[15] = Postemergence, 250 g ai/ha, scale 0 to 100 (0 no effect, 100 complete control)
[16] = Preemergence, 62 g ai/ha, scale 0 to 100 (0 no effect, 100 complete control)
[17] = Preemergence, 125 g ai/ha, scale 0 to 100 (0 no effect, 100 complete control)
[18] = Preemergence, 250 g ai/ha, scale 0 to 100 (0 no effect, 100 complete control)
[19] = postemergence, 62 g ai/ha, scale 0 to 100, 0 no effect, 100 complete control

## COC(=O)Oc1c(C)nn(C)c(=O)c1-c1c(C)sc2c(C)cc(C)cc12 [Compound 81]
[1]; [13]
  Speedwell plant response rating: 75
[1]; [14]
  Plant response rating, Speedwell: 95
[1]; [15]
  Plant response rating, Speedwell: 100
[1]; Preemergence, 31 g ai/ha
  Plant response rating (scale of 0 to 100), Speedwell: 55
[1]; [16]
  Plant response rating, Speedwell: 60
[1]; [17]
  Plant response rating, Speedwell: 100
[1]; [18]
  Plant response rating, Speedwell: 100
[1]; [19]
  Plant response rating, Speedwell: 80
[2]; [13]
  Chickweed plant response rating: 100
[2]; [14]
  Plant response rating, Chickweed: 100
[2]; [15]
  Plant response rating, Chickweed: 100
[2]; Preemergence, 31 g ai/ha
  Plant response rating (scale of 0 to 100), Chickweed: 95
[2]; [16]
  Plant response rating, Chickweed: 100
[2]; [17]
  Plant response rating, Chickweed: 100
[2]; [18]
  Plant response rating, Chickweed: 100
[2]; [19]
  Plant response rating, Chickweed: 100
[3]; [13]
  Barley, Winter plant response rating: 0
[3]; [14]
  Plant response rating, Barley, Winter: 0
[3]; [15]
  Plant response rating, Barley, Winter: 10
[3]; Preemergence, 31 g ai/ha
  Plant response rating (scale of 0 to 100), Barley, Winter: 0
[3]; [16]
  Plant response rating, Barley, Winter: 0
[3]; [17]
  Plant response rating, Barley, Winter: 45
[3]; [18]
  Plant response rating, Barley, Winter: 45
[3]; [19]
  Plant response rating, Barley, Winter: 0
[4]; [13]
  Lambsquarters plant response rating: 95
[4]; [14]
  Plant response rating, Lambsquarters: 100
[4]; [15]
  Plant response rating, Lambsquarters: 100
[4]; Preemergence, 31 g ai/ha
  Plant response rating (scale of 0 to 100), Lambsquarters: 55
[4]; [16]
  Plant response rating, Lambsquarters: 95
[4]; [17]
  Plant response rating, Lambsquarters: 70
[4]; [18]
  Plant response rating, Lambsquarters: 95
[4]; [19]
  Plant response rating, Lambsquarters: 100
[5]; [13]
  Deadnettle plant response rating: 15
[5]; [14]
  Plant response rating, Deadnettle: 35
[5]; [15]
  Plant response rating, Deadnettle: 60
[5]; Preemergence, 31 g ai/ha
  Plant response rating (scale of 0 to 100), Deadnettle: 0
[5]; [16]
  Plant response rating, Deadnettle: 0
[5]; [17]
  Plant response rating, Deadnettle: 5
[5]; [18]
  Plant response rating, Deadnettle: 55
[5]; [19]
  Plant response rating, Deadnettle: 35
[6]; [13]
  Wheat, Winter plant response rating: 0
[6]; [14]
  Plant response rating, Wheat, Winter: 5
[6]; [15]
  Plant response rating, Wheat, Winter: 5
[6]; Preemergence, 31 g ai/ha
  Plant response rating (scale of 0 to 100), Wheat, Winter: 0
[6]; [16]
  Plant response rating, Wheat, Winter: 0
[6]; [17]
  Plant response rating, Wheat, Winter: 5
[6]; [18]
  Plant response rating, Wheat, Winter: 5
[6]; [19]
  Plant response rating, Wheat, Winter: 0
[7]; [13]
  Bromegrass, Downy plant response rating: 15
[7]; [14]
  Plant response rating, Bromegrass, Downy: 65
[7]; [15]
  Plant response rating, Bromegrass, Downy: 75
[7]; Preemergence, 31 g ai/ha
  Plant response rating (scale of 0 to 100), Bromegrass, Downy: 20
[7]; [16]
  Plant response rating, Bromegrass, Downy: 45
[7]; [17]
  Plant response rating, Bromegrass, Downy: 15
[7]; [18]
  Plant response rating, Bromegrass, Downy: 75
[7]; [19]
  Plant response rating, Bromegrass, Downy: 35
[8]; [13]
  Mustard, Wild plant response rating: 50
[8]; [14]
  Plant response rating, Mustard, Wild: 60
[8]; [15]
  Plant response rating, Mustard, Wild: 80
[8]; Preemergence, 31 g ai/ha
  Plant response rating (scale of 0 to 100), Mustard, Wild: 0
[8]; [16]
  Plant response rating, Mustard, Wild: 0
[8]; [17]
  Plant response rating, Mustard, Wild: 0
[8]; [18]
  Plant response rating, Mustard, Wild: 50
[8]; [19]
  Plant response rating, Mustard, Wild: 60
[9]; [13]
  Russian Thistle plant response rating: 75
[9]; [14]
  Plant response rating, Russian Thistle: 90
[9]; [15]
  Plant response rating, Russian Thistle: 90
[9]; Preemergence, 31 g ai/ha
  Plant response rating (scale of 0 to 100), Russian Thistle: 0
[9]; [16]
  Plant response rating, Russian Thistle: 0
[9]; [17]
  Plant response rating, Russian Thistle: 15
[9]; [18]
  Plant response rating, Russian Thistle: 35
[9]; [19]
  Plant response rating, Russian Thistle: 85
Kochia (Kochia scoparia); [13]
  Kochia plant response rating: 60
Kochia (Kochia scoparia); [14]
  Plant response rating, Kochia: 90
Kochia (Kochia scoparia); [15]
  Plant response rating, Kochia: 95
Kochia (Kochia scoparia); Preemergence, 31 g ai/ha
  Plant response rating (scale of 0 to 100), Kochia: 0
Kochia (Kochia scoparia); [16]
  Plant response rating, Kochia: 0
Kochia (Kochia scoparia); [17]
  Plant response rating, Kochia: 25
Kochia (Kochia scoparia); [18]
  Plant response rating, Kochia: 15
Kochia (Kochia scoparia); [19]
  Plant response rating, Kochia: 85
[10]; [13]
  Galium plant response rating: 100
[10]; [14]
  Plant response rating, Galium: 100
[10]; [15]
  Plant response rating, Galium: 100
[10]; Preemergence, 31 g ai/ha
  Plant response rating (scale of 0 to 100), Galium: 25
[10]; [16]
  Plant response rating, Galium: 65
[10]; [17]
  Plant response rating, Galium: 85
[10]; [18]
  Plant response rating, Galium: 95
[10]; [19]
  Plant response rating, Galium: 100
[11]; [13]
  Windgrass plant response rating: 70
[11]; [14]
  Plant response rating, Windgrass: 90
[11]; [15]
  Plant response rating, Windgrass: 95
[11]; Preemergence, 31 g ai/ha
  Plant response rating (scale of 0 to 100), Windgrass: 60
[11]; [16]
  Plant response rating, Windgrass: 75
[11]; [17]
  Plant response rating, Windgrass: 90
[11]; [18]
  Plant response rating, Windgrass: 100
[11]; [19]
  Plant response rating, Windgrass: 80
[12]; [13]
  Field Poppy plant response rating: 100
[12]; [14]
  Plant response rating, Field Poppy: 100
[12]; [15]
  Plant response rating, Field Poppy: 100
[12]; Preemergence, 31 g ai/ha
  Plant response rating (scale of 0 to 100), Field Poppy: 100
[12]; [16]
  Plant response rating, Field Poppy: 100
[12]; [17]
  Plant response rating, Field Poppy: 100
[12]; [18]
  Plant response rating, Field Poppy: 100
[12]; [19]
  Plant response rating, Field Poppy: 100
